In ChEMBL document CHEMBL1136543, “3,4-disubstituted azetidinones as selective inhibitors of the cysteine protease cathepsin K. Exploring P2 elements for selectivity” (Bioorg Med Chem Lett, 2003):

What was measured:
Cathepsin B [1] = molecular target: T1, Cathepsin B (Homo sapiens, UniProt P07858); experiment: Inhibitory activity was measured against Cathepsin B
Cathepsin B [2] = molecular target: T1, Cathepsin B; experiment: Selectivity ratio between Cathepsin B and Cathepsin K
Cathepsin S [3] = molecular target: T2, Cathepsin S (Homo sapiens, UniProt P25774); experiment: Selectivity ratio between Cathepsin S and Cathepsin K
Target sequence in this assay (P25774 115-331 limits assumed): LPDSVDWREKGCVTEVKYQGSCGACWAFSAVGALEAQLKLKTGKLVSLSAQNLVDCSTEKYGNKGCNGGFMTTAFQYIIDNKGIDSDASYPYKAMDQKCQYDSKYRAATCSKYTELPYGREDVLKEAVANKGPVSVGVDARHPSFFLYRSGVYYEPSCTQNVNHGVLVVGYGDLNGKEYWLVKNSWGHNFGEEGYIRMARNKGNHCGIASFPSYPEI

Procathepsin L [4] = molecular target: T3, Procathepsin L (Homo sapiens, UniProt P07711); experiment: Selectivity ratio between Cathepsin L and Cathepsin K
Target sequence in this assay (P07711 114-333 limits assumed): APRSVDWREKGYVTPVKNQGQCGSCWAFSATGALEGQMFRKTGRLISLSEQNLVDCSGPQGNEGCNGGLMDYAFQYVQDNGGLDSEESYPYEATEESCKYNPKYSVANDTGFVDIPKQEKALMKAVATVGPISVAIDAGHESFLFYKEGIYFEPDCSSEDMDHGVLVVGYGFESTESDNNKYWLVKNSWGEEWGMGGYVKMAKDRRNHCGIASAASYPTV

Cathepsin K = molecular target: T4, Cathepsin K (Homo sapiens, UniProt P43235); experiment: Inhibitory activity was measured against Cathepsin K
T4 sequence (P43235 whole entry): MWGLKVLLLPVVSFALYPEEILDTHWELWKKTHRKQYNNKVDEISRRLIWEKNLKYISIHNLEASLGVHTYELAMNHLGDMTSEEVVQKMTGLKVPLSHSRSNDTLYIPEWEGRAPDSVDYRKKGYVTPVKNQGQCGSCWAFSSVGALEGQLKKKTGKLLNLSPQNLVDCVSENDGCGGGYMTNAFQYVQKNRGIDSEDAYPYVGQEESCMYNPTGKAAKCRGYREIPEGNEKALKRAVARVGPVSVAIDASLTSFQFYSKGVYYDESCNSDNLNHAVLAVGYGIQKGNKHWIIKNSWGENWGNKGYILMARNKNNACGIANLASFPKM

Cathepsin S [5] = molecular target: T2, Cathepsin S; experiment: Inhibitory activity was measured against Cathepsin S
Target sequence in this assay (P25774 whole entry): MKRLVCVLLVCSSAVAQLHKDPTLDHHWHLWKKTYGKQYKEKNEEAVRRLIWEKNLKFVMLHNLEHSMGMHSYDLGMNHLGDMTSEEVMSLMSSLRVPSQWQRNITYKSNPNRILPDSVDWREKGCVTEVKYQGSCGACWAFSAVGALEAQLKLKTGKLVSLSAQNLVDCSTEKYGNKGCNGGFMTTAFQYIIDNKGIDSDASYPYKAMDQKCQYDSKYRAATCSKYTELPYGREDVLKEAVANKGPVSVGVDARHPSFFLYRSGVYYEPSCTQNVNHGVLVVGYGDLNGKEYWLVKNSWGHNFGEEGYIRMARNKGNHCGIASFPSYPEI

Procathepsin L [6] = molecular target: T3, Procathepsin L; experiment: Inhibitory activity was measured against Cathepsin L
Target sequence in this assay (P07711 whole entry): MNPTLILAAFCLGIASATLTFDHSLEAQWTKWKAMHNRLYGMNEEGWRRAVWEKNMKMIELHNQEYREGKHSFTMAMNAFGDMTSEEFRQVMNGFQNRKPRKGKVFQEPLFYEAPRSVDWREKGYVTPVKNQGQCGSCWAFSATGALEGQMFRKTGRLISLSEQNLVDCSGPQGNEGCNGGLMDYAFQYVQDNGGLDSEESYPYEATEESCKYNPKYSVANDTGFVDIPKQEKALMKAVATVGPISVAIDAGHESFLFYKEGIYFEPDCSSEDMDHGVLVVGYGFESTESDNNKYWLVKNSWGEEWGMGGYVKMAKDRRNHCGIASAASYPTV

SMILES	Ki (Cathepsin B [1]) [µM]	Ratio (Cathepsin B [2])	Ratio (Cathepsin S [3])	Ratio (Procathepsin L [4])	Ki (Cathepsin K) [µM]	Ki (Cathepsin S [5]) [µM]	Ki (Procathepsin L [6]) [µM]
CC(=O)O[C@@H]1NC(=O)[C@H]1NC(=O)[C@@H]1CCC[C@@H]1NC(=O)OCc1ccccc1	52	24	5	> 70	2.1	11	> 150
CC(=O)O[C@@H]1NC(=O)[C@H]1NC(=O)[C@@H]1CCCC[C@@H]1NC(=O)OCc1ccccc1	1.6	180	15	420	0.0088	0.13	3.7
CC(=O)O[C@@H]1NC(=O)[C@H]1NC(=O)C1CCCN1C(=O)OCc1ccccc1 (stereo partly drawn)	120	120	> 160	> 160	0.95	> 150	> 150
O=C(NC1(C(=O)N[C@@H]2C(=O)N[C@@H]2Oc2ccccc2)CCCCC1)OCc1ccccc1	> 150	> 40	15	4	3.6	53	16
CC(=O)O[C@@H]1NC(=O)[C@H]1NC(=O)C1CCCCN1C(=O)OCc1ccccc1 (stereo partly drawn)	65	320	100	> 750	0.2	20	> 150
CC(=O)O[C@@H]1NC(=O)[C@H]1NC(=O)[C@H](CC(C)C)NC(=O)OCc1ccccc1	2.1	950	4	40	0.0022	0.0092	0.088
O=C(NC1(C(=O)N[C@@H]2C(=O)N[C@H]2Oc2ccccc2)CCCCC1)OCc1ccccc1	140	368	87	9	0.38	33	3.4
CC(=O)O[C@@H]1NC(=O)[C@H]1NC(=O)C1(NC(=O)OCc2ccccc2)CCCC1	7.7	48	175	870	0.16	28	140
CC(=O)O[C@@H]1NC(=O)[C@H]1NC(=O)C1(NC(=O)OCc2ccccc2)CCCCC1	4.3	750	160	1190	0.0057	0.95	6.8
